In patent publication US6737383B1, “Herbicidal oxadiazolidines” (priority 1999, dated 2004):

Legend:
blackgrass = assay: Test B pre/postemergence blackgrass; format: in vivo, Alopecurus myosuroides
Summary of the method: (§1)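 Response is a visual 0-to-10 score relative to untreated plants, where 0 means no effect and 10 means complete control, taken twelve to sixteen days after application. Treatments went onto soil at planting and onto foliage of 1- to 4-leaf plants, using a surfactant-containing non-phytotoxic solvent.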

surinam grass = assay: Test B pre/postemergence surinam grass; format: in vivo, Brachiaria decumbens; conditions: for Plant response rating, B. signalgrass: Postemergence; for B. signalgrass plant response rating: Preemergence
Summary of the method: as §1

cocklebur = assay: Test B pre/postemergence cocklebur; format: in vivo, Xanthium strumarium
Summary of the method: as §1

corn = assay: Test B pre/postemergence corn; format: in vivo, Zea mays
Summary of the method: as §1

crabgrass = assay: Test B pre/postemergence crabgrass; format: in vivo, Digitaria sanguinalis
Summary of the method: as §1

giant foxtail = assay: Test B pre/postemergence giant foxtail; format: in vivo, Setaria faberii
Summary of the method: as §1

morningglory = assay: Test B pre/postemergence morningglory; format: in vivo, Ipomoea hederacea
Summary of the method: as §1

pigweed = assay: Test B pre/postemergence pigweed; format: in vivo, Amaranthus retroflexus
Summary of the method: as §1

rape = assay: Test B pre/postemergence rape; format: in vivo, Brassica napus
Summary of the method: as §1

soybean = assay: Test B pre/postemergence soybean; format: in vivo, Glycine max
Summary of the method: as §1

sugar beet = assay: Test B pre/postemergence sugar beet; format: in vivo, Beta vulgaris
Summary of the method: as §1

velvetleaf = assay: Test B pre/postemergence velvetleaf; format: in vivo, Abutilon theophrasti
Summary of the method: as §1

wheat = assay: Test B pre/postemergence wheat; format: in vivo, Triticum aestivum
Summary of the method: as §1

wild oat = assay: Test B pre/postemergence wild oat; format: in vivo, Avena fatua
Summary of the method: as §1

purple nutsedge = assay: Test B pre/postemergence purple nutsedge; format: in vivo, Cyperus rotundus
Summary of the method: as §1

rice = assay: Test B flood test rice; format: in vivo, Oryza sativa
Summary of the method: (§2)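 Flood test on plants grown to the 2-leaf stage; treated plants kept in greenhouse twelve to sixteen days, then visually rated against controls on a 0 (no effect) to 10 (complete control) scale.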

smallflower flatsedge = assay: Test B flood test smallflower flatsedge; format: in vivo, Cyperus difformis
Summary of the method: as §2

duck salad = assay: Test B flood test duck salad; format: in vivo, Heteranthera limosa
Summary of the method: as §2

bamyardgrass = assay: Test B flood test barnyardgrass; format: in vivo, Echinochloa crus-galli
Summary of the method: as §2

[1] = Postemergence, Rate 62 g/ha, scale 0 to 10, 0 is no effect, 10 is complete control
[2] = Postemergence, Rate 125 g/ha, scale of 0 to 10 where 0 is no effect and 10 is complete control
[3] = Postemergence, Rate 250 g/ha, scale of 0 to 10, 0 is no effect, 10 is complete control
[4] = Postemergence, Rate 500 g/ha, scale of 0 to 10 where 0 is no effect and 10 is complete control
[5] = Preemergence, Rate 62 g/ha, scale 0 to 10 (0 no effect, 10 complete control)
[6] = Preemergence, Rate 125 g/ha, scale of 0 to 10 where 0 is no effect and 10 is complete control
[7] = Preemergence, Rate 500 g/ha, scale of 0 to 10 where 0 is no effect and 10 is complete control
[8] = Rate 125 g/ha, scale of 0 to 10 where 0 is no effect and 10 is complete control
[9] = Rate 500 g/ha, scale of 0 to 10 where 0 is no effect and 10 is complete control
[10] = Rate 62 g/ha, flood test species, Pre-emergence, visual evaluation after twelve to sixteen days
[11] = Rate 125 g/ha, under heading Pre-emergence, flood test species, visual evaluation after twelve to sixteen days
[12] = Rate 250 g/ha, Pre-emergence (flood test species), scale 0 to 10, 0 is no effect, 10 is complete control
[13] = Rate 500 g/ha, Pre-emergence section of Table B, 0 to 10 scale (0 no effect, 10 complete control)

Compound: C=C(Cl)Cn1c(=O)on(C(=O)N(c2ccccc2)C(C)C)c1=O [Compound 608]
- Plant response rating, Blackgrass (blackgrass; [1]): 4
- Plant response rating, Blackgrass (blackgrass; [2]): 6
- Blackgrass plant response rating (blackgrass; [3]): 8
- Plant response rating, Blackgrass (blackgrass; [4]): 9
- Blackgrass plant response rating (blackgrass; [5]): 2
- Blackgrass plant response rating (blackgrass; [6]): 5
- Blackgrass plant response rating (0 to 10 scale) (blackgrass; Preemergence, Rate 250 g/ha): 7
- Blackgrass plant response rating (blackgrass; [7]): 9
- Plant response rating, B. signalgrass (surinam grass; Rate 62 g/ha, scale 0 to 10, 0 is no effect, 10 is complete control): 3
- Plant response rating, B. signalgrass (surinam grass; [8]): 10
- Plant response rating, B. signalgrass (surinam grass; [9]): 10
- B. signalgrass plant response rating (surinam grass; Rate 62 g/ha, scale 0 to 10 (0 no effect, 10 complete control)): 1
- B. signalgrass plant response rating (surinam grass; [8]): 10
- B. signalgrass plant response rating (surinam grass; [9]): 10
- Plant response rating, Cocklebur (cocklebur; [1]): 0
- Plant response rating, Cocklebur (cocklebur; [2]): 0
- Cocklebur plant response rating (cocklebur; [3]): 0
- Plant response rating, Cocklebur (cocklebur; [4]): 0
- Cocklebur plant response rating (cocklebur; [5]): 0
- Cocklebur plant response rating (cocklebur; [6]): 0
- Cocklebur plant response rating (0 to 10 scale) (cocklebur; Preemergence, Rate 250 g/ha): 0
- Plant response rating, Cocklebur (cocklebur; [7]): 0
- Plant response rating, Corn (corn; [1]): 0
- Plant response rating, Corn (corn; [2]): 0
- Corn plant response rating (corn; [3]): 0
- Plant response rating, Corn (corn; [4]): 0
- Corn plant response rating (corn; [5]): 0
- Corn plant response rating (corn; [6]): 0
- Corn plant response rating (0 to 10 scale) (corn; Preemergence, Rate 250 g/ha): 0
- Plant response rating, Corn (corn; [7]): 1
- Plant response rating, Crabgrass (crabgrass; [1]): 3
- Plant response rating, Crabgrass (crabgrass; [2]): 3
- Crabgrass plant response rating (crabgrass; [3]): 7
- Plant response rating, Crabgrass (crabgrass; [4]): 7
- Crabgrass plant response rating (crabgrass; [5]): 7
- Crabgrass plant response rating (crabgrass; [6]): 9
- Plant response rating, Crabgrass (crabgrass; [7]): 10
- Plant response rating, Giant foxtail (giant foxtail; [1]): 5
- Plant response rating, Giant foxtail (giant foxtail; [2]): 7
- Giant foxtail plant response rating (giant foxtail; [3]): 7
- Plant response rating, Giant foxtail (giant foxtail; [4]): 9
- Giant foxtail plant response rating (giant foxtail; [5]): 9
- Giant foxtail plant response rating (giant foxtail; [6]): 10
- Plant response rating, Giant foxtail (giant foxtail; [7]): 10
- Plant response rating, Morningglory (morningglory; [1]): 0
- Plant response rating, Morningglory (morningglory; [2]): 7
- Morningglory plant response rating (morningglory; [3]): 8
- Plant response rating, Morningglory (morningglory; [4]): 10
- Morningglory plant response rating (morningglory; [5]): 0
- Morningglory plant response rating (morningglory; [6]): 0
- Plant response rating, Morningglory (morningglory; [7]): 4
- Plant response rating, Redroot pigweed (pigweed; [1]): 3
- Plant response rating, Redroot pigweed (pigweed; [2]): 5
- Redroot pigweed plant response rating (pigweed; [3]): 7
- Plant response rating, Redroot pigweed (pigweed; [4]): 8
- Redroot pigweed plant response rating (pigweed; [5]): 5
- Redroot pigweed plant response rating (pigweed; [6]): 5
- Plant response rating, Redroot pigweed (pigweed; [7]): 7
- Plant response rating, Rape (rape; [1]): 1
- Plant response rating, Rape (rape; [2]): 5
- Rape plant response rating (rape; [3]): 5
- Plant response rating, Rape (rape; [4]): 7
- Rape plant response rating (rape; [5]): 1
- Rape plant response rating (rape; [6]): 5
- Plant response rating, Rape (rape; [7]): 7
- Plant response rating, Soybean (soybean; [1]): 3
- Plant response rating, Soybean (soybean; [2]): 4
- Soybean plant response rating (soybean; [3]): 4
- Soybean plant response rating (soybean; [5]): 0
- Soybean plant response rating (soybean; [6]): 0
- Plant response rating, Soybean (soybean; [7]): 4
- Plant response rating, Sugarbeets (sugar beet; [1]): 0
- Plant response rating, Sugarbeets (sugar beet; [2]): 5
- Sugarbeets plant response rating (sugar beet; [3]): 5
- Plant response rating, Sugarbeets (sugar beet; [4]): 5
- Sugarbeets plant response rating (sugar beet; [5]): 0
- Sugarbeets plant response rating (sugar beet; [6]): 0
- Plant response rating, Sugarbeets (sugar beet; [7]): 4
- Plant response rating, Velvetleaf (velvetleaf; [1]): 0
- Plant response rating, Velvetleaf (velvetleaf; [2]): 0
- Velvetleaf plant response rating (velvetleaf; [3]): 4
- Plant response rating, Velvetleaf (velvetleaf; [4]): 6
- Velvetleaf plant response rating (velvetleaf; [5]): 0
- Velvetleaf plant response rating (velvetleaf; [6]): 4
- Plant response rating, Velvetleaf (velvetleaf; [7]): 7
- Plant response rating, Wheat (wheat; [1]): 0
- Wheat plant response rating (wheat; [3]): 0
- Plant response rating, Wheat (wheat; [4]): 0
- Wheat plant response rating (wheat; [5]): 0
- Wheat plant response rating (wheat; [6]): 0
- Plant response rating, Wheat (wheat; [7]): 0
- Plant response rating, Wild oats (wild oat; [1]): 3
- Plant response rating, Wild oats (wild oat; [2]): 4
- Wild oats plant response rating (wild oat; [3]): 5
- Plant response rating, Wild oats (wild oat; [4]): 6
- Wild oats plant response rating (wild oat; [5]): 0
- Wild oats plant response rating (wild oat; [6]): 3
- Plant response rating, Wild oats (wild oat; [7]): 6
- Plant response rating, Nutsedge (purple nutsedge; [1]): 0
- Plant response rating, Nutsedge (purple nutsedge; [2]): 0
- Nutsedge plant response rating (purple nutsedge; [3]): 0
- Nutsedge plant response rating (purple nutsedge; [6]): 0
- Plant response rating, Nutsedge (purple nutsedge; [7]): 0
- Plant response rating, Rice (0 to 10 scale, 0 is no effect, 10 is complete control) (rice; [10]): 0
- Rice plant response rating (0 to 10 scale, 0 is no effect, 10 is complete control) (rice; [11]): 0
- Rice plant response rating (rice; [12]): 0
- Rice plant response rating (rice; [13]): 0
- Plant response rating, S. Flatsedge (0 to 10 scale, 0 is no effect, 10 is complete control) (smallflower flatsedge; [10]): 0
- S. Flatsedge plant response rating (0 to 10 scale, 0 is no effect, 10 is complete control) (smallflower flatsedge; [11]): 0
- S. Flatsedge plant response rating (smallflower flatsedge; [12]): 0
- S. Flatsedge plant response rating (smallflower flatsedge; [13]): 0
- Plant response rating, Ducksalad (0 to 10 scale, 0 is no effect, 10 is complete control) (duck salad; [10]): 0
- Ducksalad plant response rating (0 to 10 scale, 0 is no effect, 10 is complete control) (duck salad; [11]): 0
- Ducksalad plant response rating (duck salad; [12]): 0
- Ducksalad plant response rating (duck salad; [13]): 0
- Plant response rating, Barnyardgrass (0 to 10 scale, 0 is no effect, 10 is complete control) (bamyardgrass; [10]): 0
- Barnyardgrass plant response rating (0 to 10 scale, 0 is no effect, 10 is complete control) (bamyardgrass; [11]): 0
- Barnyardgrass plant response rating (bamyardgrass; [12]): 0
- Barnyardgrass plant response rating (bamyardgrass; [13]): 0
